Measurements reported in paper PMC11345841, “Exploring 2-Sulfonylpyrimidine Warheads as Acrylamide Surrogates for Targeted Covalent Inhibition: A BTK Story” (Journal of Medicinal Chemistry, 2024).
pIC50: −log10 of the molar value. Like-named read-outs stand apart in the source and are kept apart here.

Legend:
FGFR1 = molecular target: T1, FGFR1 (Homo sapiens, UniProt P11362); test: KINOMEscan ScanTK; type: binding
T1 construct: purchased Eurofins DiscoverX KINOMEscan (scanTK)

EPHB6 = molecular target: T2, EPHB6 (Homo sapiens, UniProt O15197); test: KINOMEscan ScanTK; type: binding
T2 construct: purchased Eurofins DiscoverX KINOMEscan (scanTK)
T2 sequence (O15197 32-1021): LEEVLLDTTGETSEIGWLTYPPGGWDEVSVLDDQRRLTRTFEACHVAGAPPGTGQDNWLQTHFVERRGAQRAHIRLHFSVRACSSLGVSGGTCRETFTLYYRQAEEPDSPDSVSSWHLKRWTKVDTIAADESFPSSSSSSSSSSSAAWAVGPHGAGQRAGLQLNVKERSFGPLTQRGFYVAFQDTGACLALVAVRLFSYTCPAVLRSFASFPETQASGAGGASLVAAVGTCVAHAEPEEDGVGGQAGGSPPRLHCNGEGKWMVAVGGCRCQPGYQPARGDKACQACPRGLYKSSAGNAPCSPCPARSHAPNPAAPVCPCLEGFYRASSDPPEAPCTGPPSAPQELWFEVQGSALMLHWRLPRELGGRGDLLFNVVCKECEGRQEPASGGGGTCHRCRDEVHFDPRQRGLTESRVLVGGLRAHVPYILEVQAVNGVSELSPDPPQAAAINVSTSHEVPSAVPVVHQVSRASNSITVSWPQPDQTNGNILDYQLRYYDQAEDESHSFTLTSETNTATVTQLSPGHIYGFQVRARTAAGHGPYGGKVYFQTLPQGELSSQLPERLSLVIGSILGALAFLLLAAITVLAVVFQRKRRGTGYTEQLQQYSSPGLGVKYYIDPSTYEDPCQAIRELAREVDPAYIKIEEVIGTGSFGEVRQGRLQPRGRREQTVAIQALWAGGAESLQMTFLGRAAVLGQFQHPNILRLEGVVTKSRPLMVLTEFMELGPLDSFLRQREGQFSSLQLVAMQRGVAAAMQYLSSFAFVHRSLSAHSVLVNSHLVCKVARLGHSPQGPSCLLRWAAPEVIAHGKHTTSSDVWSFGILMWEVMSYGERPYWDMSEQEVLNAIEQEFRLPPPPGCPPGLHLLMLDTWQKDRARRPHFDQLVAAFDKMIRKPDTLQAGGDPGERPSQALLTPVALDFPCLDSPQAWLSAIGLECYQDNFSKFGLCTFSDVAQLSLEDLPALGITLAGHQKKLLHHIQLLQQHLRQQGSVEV

FAK = molecular target: T3, FAK (Homo sapiens, UniProt Q05397); test: KINOMEscan ScanTK; type: binding
T3 construct: purchased Eurofins DiscoverX KINOMEscan (scanTK)

YES = molecular target: T4, YES (Homo sapiens, UniProt P07947); test: KINOMEscan ScanTK; type: binding
T4 construct: purchased Eurofins DiscoverX KINOMEscan (scanTK)

KIT(L576P) = molecular target: T5, KIT(L576P) (Homo sapiens, UniProt P10721, L576P); test: KINOMEscan ScanTK; type: binding
T5 construct: purchased Eurofins DiscoverX KINOMEscan (scanTK)
T5 sequence (P10721 26-976 L576P): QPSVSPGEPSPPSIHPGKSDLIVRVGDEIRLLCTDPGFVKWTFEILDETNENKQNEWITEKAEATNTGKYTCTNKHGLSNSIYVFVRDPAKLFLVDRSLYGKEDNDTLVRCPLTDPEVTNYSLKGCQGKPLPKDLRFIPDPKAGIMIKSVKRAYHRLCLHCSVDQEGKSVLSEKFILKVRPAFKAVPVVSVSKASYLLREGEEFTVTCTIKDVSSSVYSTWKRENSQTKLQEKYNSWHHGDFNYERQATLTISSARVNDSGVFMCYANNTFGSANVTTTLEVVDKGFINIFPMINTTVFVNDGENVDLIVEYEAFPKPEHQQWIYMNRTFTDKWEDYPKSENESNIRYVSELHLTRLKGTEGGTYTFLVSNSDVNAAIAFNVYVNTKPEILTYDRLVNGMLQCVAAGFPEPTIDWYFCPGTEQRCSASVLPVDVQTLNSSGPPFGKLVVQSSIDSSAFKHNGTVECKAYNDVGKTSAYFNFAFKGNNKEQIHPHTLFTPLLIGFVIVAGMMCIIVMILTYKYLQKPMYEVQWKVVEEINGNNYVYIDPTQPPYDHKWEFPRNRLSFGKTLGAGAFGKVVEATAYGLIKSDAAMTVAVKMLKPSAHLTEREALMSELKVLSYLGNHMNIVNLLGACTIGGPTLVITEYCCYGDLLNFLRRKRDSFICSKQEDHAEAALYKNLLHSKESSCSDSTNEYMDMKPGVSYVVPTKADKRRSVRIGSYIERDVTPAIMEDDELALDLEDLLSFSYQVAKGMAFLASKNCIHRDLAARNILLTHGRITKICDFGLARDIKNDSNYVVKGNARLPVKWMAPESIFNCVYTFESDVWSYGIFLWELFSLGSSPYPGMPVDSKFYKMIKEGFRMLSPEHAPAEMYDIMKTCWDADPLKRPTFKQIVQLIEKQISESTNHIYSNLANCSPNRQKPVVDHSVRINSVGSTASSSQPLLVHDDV

FLT3(ITD,F691L) = test: KINOMEscan ScanTK; type: binding
KIT(D816V) = molecular target: T6, KIT(D816V) (Homo sapiens, UniProt P10721, D816V); test: KINOMEscan ScanTK; type: binding
T6 construct: purchased Eurofins DiscoverX KINOMEscan (scanTK)
T6 sequence (P10721 26-976 D816V): as the sequence (P10721 26-976 L576P) above, with P551L, D791V counted along it

FLT3(ITD) = test: KINOMEscan ScanTK; type: binding
FGFR3 = molecular target: T7, FGFR3 (Homo sapiens, UniProt P22607); test: KINOMEscan ScanTK; type: binding
T7 construct: purchased Eurofins DiscoverX KINOMEscan (scanTK)
T7 sequence (P22607 23-806): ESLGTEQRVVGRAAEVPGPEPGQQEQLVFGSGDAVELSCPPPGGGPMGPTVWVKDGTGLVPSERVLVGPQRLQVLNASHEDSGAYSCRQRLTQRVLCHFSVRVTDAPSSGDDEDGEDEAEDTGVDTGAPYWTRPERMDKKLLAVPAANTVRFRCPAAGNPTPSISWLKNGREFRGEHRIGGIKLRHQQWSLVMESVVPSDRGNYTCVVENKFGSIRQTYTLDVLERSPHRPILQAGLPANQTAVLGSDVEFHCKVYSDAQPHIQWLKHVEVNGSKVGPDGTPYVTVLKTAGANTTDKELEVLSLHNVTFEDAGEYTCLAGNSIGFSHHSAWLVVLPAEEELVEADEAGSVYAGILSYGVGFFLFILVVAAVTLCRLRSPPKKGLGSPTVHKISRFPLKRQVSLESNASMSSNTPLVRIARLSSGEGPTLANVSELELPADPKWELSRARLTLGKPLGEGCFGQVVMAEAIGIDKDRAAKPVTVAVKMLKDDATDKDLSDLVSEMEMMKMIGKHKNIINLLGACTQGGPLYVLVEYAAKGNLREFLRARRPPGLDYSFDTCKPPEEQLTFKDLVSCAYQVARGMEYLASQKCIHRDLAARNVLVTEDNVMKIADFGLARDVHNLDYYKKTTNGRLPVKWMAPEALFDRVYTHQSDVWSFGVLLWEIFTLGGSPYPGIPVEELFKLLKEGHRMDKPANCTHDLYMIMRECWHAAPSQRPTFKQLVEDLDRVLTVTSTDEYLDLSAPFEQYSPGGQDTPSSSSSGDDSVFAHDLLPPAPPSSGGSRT

[1] = molecular target: JAK3, catalytic domain (795–1124) (Homo sapiens, UniProt P52333); test: PhosphoSens enzymatic IC50 (AssayQuant)
Excerpt: Biochemical enzymatic IC50 data were generated by AssayQuant Technologies (Marlborough, MA) using the PhosphoSens Platform. […] Reaction rate versus log [inhibitor concentration] data were fitted to the four-parameter logistic equation [drawing 1]

[2] = molecular target: T8, ABL1(E255K)-phosphorylated (Homo sapiens, UniProt P00519, E255K); test: KINOMEscan ScanTK; type: binding
T8 construct: purchased Eurofins DiscoverX KINOMEscan (scanTK)

[3] = molecular target: T9, ABL1(F317L)-nonphosphorylated (Homo sapiens, UniProt P00519, F317L); test: KINOMEscan ScanTK; type: binding
T9 construct: purchased Eurofins DiscoverX KINOMEscan (scanTK)

[4] = molecular target: T10, ABL1(Y253F)-phosphorylated (Homo sapiens, UniProt P00519, Y253F); test: KINOMEscan ScanTK; type: binding
T10 construct: purchased Eurofins DiscoverX KINOMEscan (scanTK)

FYN = molecular target: T11, FYN (Homo sapiens, UniProt P06241); test: KINOMEscan ScanTK; type: binding
T11 construct: purchased Eurofins DiscoverX KINOMEscan (scanTK)

EPHA2 = molecular target: T12, EPHA2 (Homo sapiens, UniProt P29317); test: KINOMEscan ScanTK; type: binding
T12 construct: purchased Eurofins DiscoverX KINOMEscan (scanTK)
T12 sequence (P29317 24-976): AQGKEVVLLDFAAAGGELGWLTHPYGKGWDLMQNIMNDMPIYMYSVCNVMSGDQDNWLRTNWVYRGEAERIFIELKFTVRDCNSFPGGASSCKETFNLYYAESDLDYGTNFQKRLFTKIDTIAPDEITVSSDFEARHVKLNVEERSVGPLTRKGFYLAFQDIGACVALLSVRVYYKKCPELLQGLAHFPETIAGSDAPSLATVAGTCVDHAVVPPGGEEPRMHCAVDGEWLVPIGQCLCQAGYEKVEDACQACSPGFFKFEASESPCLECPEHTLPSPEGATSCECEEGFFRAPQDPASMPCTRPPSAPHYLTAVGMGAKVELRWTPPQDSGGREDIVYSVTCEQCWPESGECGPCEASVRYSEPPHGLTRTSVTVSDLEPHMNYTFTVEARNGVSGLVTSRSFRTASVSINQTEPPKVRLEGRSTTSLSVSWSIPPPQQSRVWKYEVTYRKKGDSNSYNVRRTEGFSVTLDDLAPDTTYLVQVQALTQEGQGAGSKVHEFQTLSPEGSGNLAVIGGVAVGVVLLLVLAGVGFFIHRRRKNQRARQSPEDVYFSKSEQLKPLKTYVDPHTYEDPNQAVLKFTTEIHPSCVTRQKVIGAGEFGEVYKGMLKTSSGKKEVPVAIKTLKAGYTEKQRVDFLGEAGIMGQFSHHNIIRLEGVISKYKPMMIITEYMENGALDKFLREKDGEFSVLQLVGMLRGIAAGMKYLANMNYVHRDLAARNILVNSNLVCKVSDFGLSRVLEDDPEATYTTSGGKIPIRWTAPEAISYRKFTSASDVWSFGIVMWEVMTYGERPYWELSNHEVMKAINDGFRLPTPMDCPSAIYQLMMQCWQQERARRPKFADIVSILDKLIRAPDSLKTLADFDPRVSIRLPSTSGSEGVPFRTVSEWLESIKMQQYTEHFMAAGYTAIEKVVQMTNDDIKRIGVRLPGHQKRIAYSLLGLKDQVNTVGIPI

INSR = molecular target: T13, INSR (Homo sapiens, UniProt P06213); test: KINOMEscan ScanTK; type: binding
T13 construct: purchased Eurofins DiscoverX KINOMEscan (scanTK)
T13 sequence (P06213 28-1382): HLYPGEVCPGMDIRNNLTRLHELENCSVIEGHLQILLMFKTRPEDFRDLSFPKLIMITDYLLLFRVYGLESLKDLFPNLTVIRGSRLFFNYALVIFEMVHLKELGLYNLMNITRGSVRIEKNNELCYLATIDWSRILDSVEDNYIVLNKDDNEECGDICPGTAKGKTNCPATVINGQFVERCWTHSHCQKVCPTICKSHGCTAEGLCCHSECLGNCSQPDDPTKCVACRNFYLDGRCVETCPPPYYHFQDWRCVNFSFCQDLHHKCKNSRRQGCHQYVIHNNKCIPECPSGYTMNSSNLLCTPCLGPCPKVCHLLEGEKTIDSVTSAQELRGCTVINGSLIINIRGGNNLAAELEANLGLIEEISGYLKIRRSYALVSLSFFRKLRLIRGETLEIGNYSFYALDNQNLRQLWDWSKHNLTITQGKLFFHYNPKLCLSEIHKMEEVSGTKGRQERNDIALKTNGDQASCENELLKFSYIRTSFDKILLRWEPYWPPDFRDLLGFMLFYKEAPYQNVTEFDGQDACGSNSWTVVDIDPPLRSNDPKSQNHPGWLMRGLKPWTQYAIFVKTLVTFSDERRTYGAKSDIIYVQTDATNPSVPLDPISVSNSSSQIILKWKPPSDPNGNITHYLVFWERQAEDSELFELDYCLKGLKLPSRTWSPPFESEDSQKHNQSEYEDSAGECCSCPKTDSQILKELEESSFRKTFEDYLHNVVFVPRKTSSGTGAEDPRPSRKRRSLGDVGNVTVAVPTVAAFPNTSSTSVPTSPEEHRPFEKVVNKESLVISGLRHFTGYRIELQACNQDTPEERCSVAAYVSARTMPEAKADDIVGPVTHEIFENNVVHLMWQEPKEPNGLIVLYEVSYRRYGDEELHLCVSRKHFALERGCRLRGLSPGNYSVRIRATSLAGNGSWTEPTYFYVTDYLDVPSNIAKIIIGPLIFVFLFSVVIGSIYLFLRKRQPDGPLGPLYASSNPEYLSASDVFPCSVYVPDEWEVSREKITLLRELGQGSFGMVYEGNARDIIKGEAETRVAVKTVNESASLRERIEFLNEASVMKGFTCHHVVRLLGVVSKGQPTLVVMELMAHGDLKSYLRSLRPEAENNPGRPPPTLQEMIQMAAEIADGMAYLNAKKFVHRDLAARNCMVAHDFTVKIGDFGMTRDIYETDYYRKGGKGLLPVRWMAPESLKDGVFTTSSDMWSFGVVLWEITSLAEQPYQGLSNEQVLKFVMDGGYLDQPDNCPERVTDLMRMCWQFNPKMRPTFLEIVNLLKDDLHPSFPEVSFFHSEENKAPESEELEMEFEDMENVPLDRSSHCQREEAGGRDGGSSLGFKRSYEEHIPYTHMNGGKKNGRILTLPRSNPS

CSF1R = molecular target: T14, CSF1R (Homo sapiens, UniProt P07333); test: KINOMEscan ScanTK; type: binding
T14 construct: purchased Eurofins DiscoverX KINOMEscan (scanTK)

VEGFR2 = molecular target: T15, VEGFR2 (Homo sapiens, UniProt P35968); test: KINOMEscan ScanTK; type: binding
T15 construct: purchased Eurofins DiscoverX KINOMEscan (scanTK)

RET(M918T) = molecular target: T16, RET(M918T) (Homo sapiens, UniProt P07949, M918T); test: KINOMEscan ScanTK; type: binding
T16 construct: purchased Eurofins DiscoverX KINOMEscan (scanTK)

[5] = @1000nM, read-out: % difference (compound - Ib %Control)

T1 sequence (P11362 22-822): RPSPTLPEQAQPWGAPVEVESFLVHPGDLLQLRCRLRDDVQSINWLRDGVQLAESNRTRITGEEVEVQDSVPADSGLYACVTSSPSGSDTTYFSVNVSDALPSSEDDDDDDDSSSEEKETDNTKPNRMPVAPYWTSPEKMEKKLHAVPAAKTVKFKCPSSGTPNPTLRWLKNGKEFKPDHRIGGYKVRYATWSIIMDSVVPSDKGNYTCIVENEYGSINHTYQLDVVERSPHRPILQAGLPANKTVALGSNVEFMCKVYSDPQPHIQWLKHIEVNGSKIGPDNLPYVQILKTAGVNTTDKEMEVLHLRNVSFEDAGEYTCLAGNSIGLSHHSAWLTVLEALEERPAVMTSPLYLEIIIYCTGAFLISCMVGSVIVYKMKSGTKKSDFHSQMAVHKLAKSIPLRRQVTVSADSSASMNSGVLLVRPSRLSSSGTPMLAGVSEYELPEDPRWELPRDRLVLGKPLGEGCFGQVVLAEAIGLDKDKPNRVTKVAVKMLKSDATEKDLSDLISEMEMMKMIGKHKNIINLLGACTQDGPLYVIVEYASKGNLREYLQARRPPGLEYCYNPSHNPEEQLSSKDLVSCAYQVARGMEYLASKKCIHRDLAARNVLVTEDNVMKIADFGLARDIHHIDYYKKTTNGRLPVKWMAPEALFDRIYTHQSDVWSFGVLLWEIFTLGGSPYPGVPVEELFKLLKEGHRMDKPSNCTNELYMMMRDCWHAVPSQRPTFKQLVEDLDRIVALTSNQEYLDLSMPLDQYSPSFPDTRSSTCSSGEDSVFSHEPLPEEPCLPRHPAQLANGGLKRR

## COC(=O)c1cnc(S(C)(=O)=O)nc1N1CCCC(n2nc(-c3ccc(Oc4ccccc4)cc3)c3c(N)ncnc32)C1 (stereo not drawn) [Compound 8b, Methyl 4-(3-(4-Amino-3-(4-phenoxyphenyl)-1H-pyrazolo[3,4-d]pyrimidin-1-yl)piperidin-1-yl)-2-(methylsulfonyl)pyrimidine-5-carboxylate]
FGFR1; @1000nM
  difference in %Control from compound Ib at 1 µM: 16%
FGFR1; @1000nM, read-out: %Control
  remaining binding at 1 µM: 49%
FGFR1; read-out: %Control @1000nM
  remaining binding at 1 µM: 49%
EPHB6; @1000nM
  difference in %Control versus compound Ib at 1 µM: -9.1%
EPHB6; @1000nM, read-out: %Control
  remaining binding at 1 µM: 8.9%
EPHB6; read-out: %Control @1000nM
  remaining binding at 1 µM: 8.9%
FAK; @1000nM
  difference in %Control versus compound Ib at 1 µM: 0%
FAK; @1000nM, read-out: %Control
  remaining binding at 1 µM: 100%
FAK; read-out: %Control @1000nM
  remaining binding at 1 µM: 100%
YES; @1000nM, read-out: %Control
  remaining binding at 1 µM: 16%
YES; read-out: %Control @1000nM
  remaining binding at 1 µM: 16%
KIT(L576P); [5]
  difference in %Control versus Ib at 1 µM: 24%
KIT(L576P); @1000nM, read-out: %Control
  remaining binding at 1 µM: 56%
KIT(L576P); read-out: %Control @1000nM
  remaining binding at 1 µM: 56%
FLT3(ITD,F691L)
  %Control @1000nM: 96%
FLT3(ITD,F691L); @1000nM
  % difference (compound - Ib %Control): -4%
  %Control: 96%
KIT(D816V); @1000nM, read-out: %Control
  remaining binding at 1 µM: 85%
KIT(D816V); read-out: %Control @1000nM
  remaining binding at 1 µM: 85%
FLT3(ITD)
  %Control @1000nM: 100%
FLT3(ITD); @1000nM
  % difference (compound - Ib %Control): 28%
  %Control: 100%
FGFR3; @1000nM
  difference in %Control versus compound Ib at 1 µM: 47%
FGFR3; @1000nM, read-out: %Control
  remaining binding at 1 µM: 95%
FGFR3; read-out: %Control @1000nM
  remaining binding at 1 µM: 95%
[1]
  pIC50: < 6.00
[2]; [5]
  difference in %Control from reference Ib at 1 µM: 17%
[2]; @1000nM, read-out: %Control
  remaining binding at 1 µM: 81%
[2]; read-out: %Control @1000nM
  remaining binding at 1 µM: 81%
[3]; @1000nM
  difference in % of control binding versus compound Ib at 1 µM: 38%
[3]; @1000nM, read-out: %Control
  remaining binding at 1 µM: 70%
[3]; read-out: %Control @1000nM
  remaining binding at 1 µM: 70%
[4]; @1000nM
  difference in %Control from compound Ib at 1 µM: 1%
[4]; @1000nM, read-out: %Control
  remaining binding at 1 µM: 78%
[4]; read-out: %Control @1000nM
  remaining binding at 1 µM: 78%
FYN; @1000nM
  difference in % of control versus compound Ib at 1 µM: 16.4%
FYN; @1000nM, read-out: %Control
  remaining binding at 1 µM: 26%
FYN; read-out: %Control @1000nM
  remaining binding at 1 µM: 26%
EPHA2; @1000nM
  difference in %Control versus compound Ib at 1 µM: -1%
EPHA2; @1000nM, read-out: %Control
  remaining binding at 1 µM: 99%
EPHA2; read-out: %Control @1000nM
  remaining binding at 1 µM: 99%
INSR; @1000nM
  difference in %Control versus compound Ib at 1 µM: -5%
INSR; @1000nM, read-out: %Control
  remaining binding at 1 µM: 95%
INSR; read-out: %Control @1000nM
  remaining binding at 1 µM: 95%
CSF1R; @1000nM
  difference in %Control versus compound Ib at 1 µM: 12%
CSF1R; @1000nM, read-out: %Control
  remaining binding at 1 µM: 92%
CSF1R; read-out: %Control @1000nM
  remaining binding at 1 µM: 92%
VEGFR2; @1000nM, read-out: %Control
  remaining binding at 1 µM: 90%
VEGFR2; read-out: %Control @1000nM
  remaining binding at 1 µM: 90%
RET(M918T); @1000nM, read-out: %Control
  remaining binding at 1 µM: 49%
RET(M918T); read-out: %Control @1000nM
  remaining binding at 1 µM: 49%
